Experimental data taken from patent publication US8592403B2, “Diazepine and diazocane compounds as MC4 agonists” (Pfizer Limited, priority 2008, dated 2013).

Experiments:
CYP3A4 = target: T1, CYP3A4 (Homo sapiens, UniProt P08684); assay: High density DDI 3 μM cocktail screen in human liver microsomes, midazolam probe; format: in vitro ADME; details: human, liver microsomes, probe midazolam, read-out: % inhibition 3A4 @ 3 μM
T1 construct: utilizes human liver microsomes together with isoform-specific clinical drug probes; from tissue; host or cells: human liver microsomes
How it was run: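 Pooled human liver microsomes incubated with isoform-specific clinical probe substrates as a cocktail (midazolam for CYP3A4), with or without test compound at 3 μM. Metabolite formation followed over time by LC-MS/MS. Inhibition expressed as a single-point percentage.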

MC4 receptor (MC4R) = target: T2, MC4 receptor (MC4R) (Homo sapiens, UniProt P32245); assay: Nle4, D-Phe7-α-MSH inhibition at the MC4 receptor (competition binding, SPA, CHO-CRE MC4R membranes)
T2 construct: expressed in transfected cells; host or cells: CHO-CRE MC4R cells (membranes)
Description: Nle4, D-Phe7-α-MSH Inhibition at the MC4 Receptor
(§1) Nle4, D-Phe7-α-MSH is a stable analogue of melanocyte-stimulating hormone (MSH), which is an agonist at the MC4 receptor (MC4R). Compounds can be evaluated for their ability to inhibit Nle4, D-Phe7-α-MSH binding to membranes from cells expressing the MC4R using a competition binding assay versus [^125I] Nle4, D-Phe7-α-MSH.
Cells expressing the MC4R were subject to homogenisation and the membrane fragment isolated by differential centrifugation. CHO-CRE MC4R cell membranes were coupled to PVT-PEI-WGA SPA Beads type A for 2 hours, spun at 1000 RPM for 5 min and suspended to a concentration of 300 ug bead/ml (0.15 ug membrane, 15 ug bead per well). Bead/membrane mix was incubated with 0.06 nM [^125I] Nle4, D-Phe7-α-MSH and 11 half-log concentrations of competitor ligand, in duplicate, in a total volume of 50 μl buffer per well (25 mM HEPES, 1 mM MgCl2, 2.5 mM CaCl2, 1% Pluronic F68, 1 complete EDTA protease inhibitor tablet/50 ml pH7). Non-specific binding was determined by the inclusion of 100 nM SHU9119. The reaction was initiated by the addition of bead/membranes and plates were incubated at room temperature for 12 hours (the first hour on a plate shaker), after which the amount of radioactivity present was determined using a Wallac plate counter. Ki values were determined by data analysis using appropriate software.

[1] = In vitro metabolism rate determination, human liver microsome (HLM) assay; format: in vitro ADME; details: human, liver microsomes, read-out: HLM: Clint, app
How it was run: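 Human liver microsomes at 0.5 nmol cytochrome P450/ml with 1 μM substrate, pre-warmed 5 min at 37° C, reaction started with NADP; samples taken 0–60 min and terminated. Substrate loss measured; first-order rate constant from log-linear regression converted to half-life or Clint (μl/min/mg protein).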

MC3 receptor (MC3R) = target: T3, MC3 receptor (MC3R) (Homo sapiens, UniProt P41968); assay: Nle4, D-Phe7-α-MSH inhibition at the MC3 receptor (competition binding, SPA, CHO-CRE MC3R membranes)
T3 construct: expressed in transfected cells; host or cells: CHO-CRE MC3R cells (membranes)
Description: Nle4, D-Phe7-α-MSH Inhibition at the MC3 Receptor
as §1, with “MC3” for “MC4”, “(MC3R).” for “(MC4R).”, “MC3R” for “MC4R”
Cells expressing the MC3R were subject to homogenisation and the membrane fragment isolated by differential centrifugation. CHO-CRE MC3R cell membranes were coupled to PVT-PEI-WGA SPA Beads type A for 2 hours, spun at 1000 RPM for 5 mins and suspended to a final assay concentration of 800 ug bead/ml (1.2 ug membrane, 40 ug bead per well). Bead/membrane mix was incubated with 0.06 nM [^125I] Nle4, D-Phe7-α-MSH and 11 half-log concentrations of competitor ligand, in duplicate, in a total volume of 50 μl buffer per well (25 mM HEPES, 1 mM MgCl2, 2.5 mM CaCl2, 1% Pluronic F68, 1 complete EDTA protease inhibitor tablet/50 ml pH7). Non-specific binding was determined by the inclusion of 100 nM SHU9119. The reaction was initiated by the addition of bead/membranes and plates were incubated at room temperature for 12 hours (the first hour on a plate shaker), after which the amount of radioactivity present was determined using a Wallac plate counter. Ki values were determined by data analysis using appropriate software.

MC4 receptor = MC4 receptor (Homo sapiens, UniProt P32245); assay: MC4 EC50 functional potency (protocol E of US2005/0176772 / WO 2005/077935); format: cell-based
Protocol: The compounds of formula (I) of the present invention have utility as MCR4 agonists in the treatment of various disease states.
MC5 and MC4 EC50 activity was determined as described by assay protocols D and E, respectively, in US2005/0176772 (pages 28-30).

T1 sequence (P08684 whole entry, canonical isoform): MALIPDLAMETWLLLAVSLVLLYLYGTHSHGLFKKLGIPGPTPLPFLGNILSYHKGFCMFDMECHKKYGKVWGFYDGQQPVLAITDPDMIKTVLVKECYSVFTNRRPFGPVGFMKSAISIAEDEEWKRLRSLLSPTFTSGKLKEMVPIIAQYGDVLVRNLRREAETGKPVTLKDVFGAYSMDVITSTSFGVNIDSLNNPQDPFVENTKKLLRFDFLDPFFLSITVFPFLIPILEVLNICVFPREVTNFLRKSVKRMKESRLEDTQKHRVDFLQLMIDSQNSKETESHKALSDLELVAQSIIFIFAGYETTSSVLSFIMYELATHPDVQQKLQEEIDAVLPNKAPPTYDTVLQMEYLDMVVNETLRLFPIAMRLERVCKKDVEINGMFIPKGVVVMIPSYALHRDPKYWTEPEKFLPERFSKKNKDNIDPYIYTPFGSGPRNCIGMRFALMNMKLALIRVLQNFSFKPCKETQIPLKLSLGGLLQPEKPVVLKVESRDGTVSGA
T3 sequence (P41968 whole entry): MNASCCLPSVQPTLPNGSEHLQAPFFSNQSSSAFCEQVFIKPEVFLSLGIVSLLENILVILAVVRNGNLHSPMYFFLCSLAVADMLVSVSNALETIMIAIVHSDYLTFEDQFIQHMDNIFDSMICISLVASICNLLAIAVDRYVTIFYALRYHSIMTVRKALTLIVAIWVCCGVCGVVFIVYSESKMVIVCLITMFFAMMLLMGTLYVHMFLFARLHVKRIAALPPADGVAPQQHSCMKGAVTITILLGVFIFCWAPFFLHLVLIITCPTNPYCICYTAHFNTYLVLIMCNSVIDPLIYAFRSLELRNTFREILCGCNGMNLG
Sequence of MC4 receptor (P32245 whole entry): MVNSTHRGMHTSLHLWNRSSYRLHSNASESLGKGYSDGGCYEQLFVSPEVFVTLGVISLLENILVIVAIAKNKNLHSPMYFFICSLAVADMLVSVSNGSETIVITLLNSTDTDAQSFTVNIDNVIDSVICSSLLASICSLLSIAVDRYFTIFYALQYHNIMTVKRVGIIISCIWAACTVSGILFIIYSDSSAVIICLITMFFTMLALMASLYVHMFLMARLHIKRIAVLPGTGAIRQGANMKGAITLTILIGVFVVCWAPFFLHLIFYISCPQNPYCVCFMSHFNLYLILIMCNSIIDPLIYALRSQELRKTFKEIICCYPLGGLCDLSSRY
T2 sequence (P32245 whole entry): as above

SMILES	inhibition at 3 µM (CYP3A4) [%]	Ki (MC4 receptor (MC4R)) [µM]	microsomal CLint at 1 μM [1] [µL/min/mg]	Ki (MC3 receptor (MC3R)) [µM]	EC50 (MC4 receptor) [µM]
COC(=O)N1CCN(C(=O)[C@@H]2CN(C(C)(C)C)C[C@H]2c2ccc(F)cc2F)CCCC1c1ccccc1 (mixture of isomers) [Example 82]	47	5.18	66	19.4	0.0606
COC(=O)N1CCN(C(=O)[C@@H]2CN(C(C)(C)C)C[C@H]2c2ccc(F)cc2F)CCCC1c1ccc(Cl)cc1 (mixture of isomers) [Example 83]	29	1.69	23	8.11	0.0321
COc1ccc([C@@H]2CN(C(C)(C)C)C[C@H]2C(=O)N2CCCC(c3ccc(Cl)cc3)N(S(C)(=O)=O)CC2)c(F)c1 (mixture of isomers) [Example 92]	33.5	1.77	32.4	17.9	0.274
COC(=O)N1CCN(C(=O)[C@@H]2CN(C(=O)OC(C)(C)C)C[C@H]2c2ccc(F)cc2F)CCCC1c1ccccc1 (mixture of isomers) [Example 97]	63	1.62	247	3.72	0.157
CCCC(=O)N1CCN(C(=O)[C@@H]2CN(C(C)(C)C)C[C@H]2c2ccc(F)cc2F)CCCC1c1ccccc1 (mixture of isomers) [Example 104, 1-{[(3S,4R)-1-tert-butyl-4-(2,4-difluorophenyl)pyrrolidin-3-yl]carbonyl}-4-butyryl-5-phenyl-1,4-diazocane]	48	0.583	69.2	9.08	0.018

Continued, values first:

inhibition at 3 µM (CYP3A4) [%]	Ki (MC4 receptor (MC4R)) [µM]	microsomal CLint at 1 μM [1] [µL/min/mg]	Ki (MC3 receptor (MC3R)) [µM]	EC50 (MC4 receptor) [µM]	SMILES
37.5	0.0922	42	0.571	0.0361	COc1ccc([C@@H]2CN(c3ccc(C#N)nn3)C[C@H]2C(=O)N2CCCC(c3ccc(Cl)cc3)N(S(C)(=O)=O)CC2)c(F)c1 (mixture of isomers) [Example 105, 6-[(3S,4R)-3-{[5-(4-chlorophenyl)-4-(methylsulfonyl)-1,4-diazocan-1-yl]carbonyl}-4-(2-fluoro-4-methoxyphenyl)pyrrolidin-1-yl]pyridazine-3-carbonitrile]
55.5	0.0964	47	0.683	0.0277	COC(=O)N1CCN(C(=O)[C@@H]2CN(c3ccc(Cl)nn3)C[C@H]2c2ccc(OC)cc2F)CCCC1c1ccc(Cl)cc1 (mixture of isomers) [Example 107, Methyl 8-(4-chlorophenyl)-4-{[(3S,4R)-1-(6-chloropyridazin-3-yl)-4-(2-fluoro-4-methoxyphenyl)pyrrolidin-3-yl]carbonyl}-1,4-diazocane-1-carboxylate]
65.5	0.0174	15	0.404	0.00338	COC(=O)N1CCN(C(=O)[C@@H]2CN(c3ccc(=O)[nH]n3)C[C@H]2c2ccc(OC)cc2F)CCCC1c1ccc(Cl)cc1 (mixture of isomers) [Example 112, methyl 8-(4-chlorophenyl)-4-{[(3S,4R)-4-(2-fluoro-4-methoxyphenyl)-1-(6-oxo-1,6-dihydropyridazin-3-yl)pyrrolidin-3-yl]carbonyl}-1,4-diazocane-1-carboxylate]
75	0.0243	12	0.573	0.0036	COC(=O)N1CCN(C(=O)[C@@H]2CN(c3ccc(=O)n(C)n3)C[C@H]2c2ccc(OC)cc2F)CCCC1c1ccc(Cl)cc1 (mixture of isomers) [Example 116]
66.5	0.0684	24	0.942	0.0147	COc1ccc([C@@H]2CN(c3ccc(=O)[nH]n3)C[C@H]2C(=O)N2CCCC(c3ccc(Cl)cc3)N(S(C)(=O)=O)CC2)c(F)c1 (mixture of isomers) [Example 111, 6-[(3S,4R)-3-{[5-(4-chlorophenyl)-4-(methylsulfonyl)-1,4-diazocan-1-yl]carbonyl}-4-(2-fluoro-4-methoxyphenyl)pyrrolidin-1-yl]pyridazin-3(2H)-one]
